# Tests used:
# Settings in all cases: concentration of 100 nM
# MKK7 = target: T1, MKK7 (Homo sapiens, UniProt O14733); assay: KINOMEscan competition binding assay, selectivity against off-target MKK7
# T1 construct: M1/R419; host or cells: HEK-293
# T1 sequence (O14733 1-419): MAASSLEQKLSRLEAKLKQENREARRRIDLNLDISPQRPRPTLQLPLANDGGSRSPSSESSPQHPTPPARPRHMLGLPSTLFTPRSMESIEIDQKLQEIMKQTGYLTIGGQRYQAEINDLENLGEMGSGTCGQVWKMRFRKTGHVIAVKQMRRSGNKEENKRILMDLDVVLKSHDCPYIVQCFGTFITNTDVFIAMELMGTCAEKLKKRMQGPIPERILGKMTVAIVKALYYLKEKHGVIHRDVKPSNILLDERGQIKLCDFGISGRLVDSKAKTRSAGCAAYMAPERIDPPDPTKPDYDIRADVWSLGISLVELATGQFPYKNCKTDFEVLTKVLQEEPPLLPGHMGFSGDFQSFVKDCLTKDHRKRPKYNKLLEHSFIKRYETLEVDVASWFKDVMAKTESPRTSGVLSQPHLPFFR
# Description: (§1) The assay was performed by combining three components: DNA-tagged kinase; immobilized ligand; and a test compound. The ability of the test compound to compete with the immobilized ligand was measured via quantitative PCR of the DNA tag. The technology is described in detail in Fabian, M. A. et al. A small molecule-kinase interaction map for clinical kinase inhibitors. Nat. […] M. W. et al. A quantitative analysis of kinase inhibitor selectivity, Nat.
# (§2) For investigation of the affinity to MKK4, MKK7 and JNK1, the kinases were produced in HEK-293 cells and subsequently tagged with DNA for qPCR detection. […] The liganded beads were blocked with excess biotin and washed with blocking buffer (SEABLOCK™ (Pierce), 1% BSA, 0.05% TWEEN®20, 1 mM DTT) to remove unbound ligand and to reduce nonspecific binding. […] All reactions were performed in polystyrene 96-well plates in a final volume of 0.135 mL. […] The kinase concentration in the eluates was measured by qPCR.
# (§3) The test compounds were provided as 10 mM stock solutions. The test solutions at indicated final concentrations were prepared at DiscoverX.
# MKK4 = target: T2, MKK4 (Homo sapiens, UniProt P45985); assay: KINOMEscan competition binding assay, MKK4 potency
# T2 construct: S84/D399; host or cells: HEK-293
# T2 sequence (P45985 84-399): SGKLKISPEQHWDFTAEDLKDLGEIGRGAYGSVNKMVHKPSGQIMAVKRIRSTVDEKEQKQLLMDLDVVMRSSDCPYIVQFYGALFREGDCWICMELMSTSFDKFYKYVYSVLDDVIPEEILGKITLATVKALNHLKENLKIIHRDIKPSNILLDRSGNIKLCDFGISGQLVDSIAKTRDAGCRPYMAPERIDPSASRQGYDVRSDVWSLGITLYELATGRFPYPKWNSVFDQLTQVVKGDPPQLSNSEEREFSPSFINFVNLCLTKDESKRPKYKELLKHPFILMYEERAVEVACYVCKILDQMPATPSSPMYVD
# Description: as §1, §2, §3
# JNK1 = target: T3, JNK1 (Homo sapiens, UniProt P45983); assay: KINOMEscan competition binding assay, selectivity against off-target JNK1
# T3 construct: M1/Q384; host or cells: HEK-293
# Description: as §1, §2, §3
# BRaf = BRaf (Homo sapiens, UniProt P15056); assay: KINOMEscan competition binding assay, selectivity against off-target BRaf
# Description: as §1, §3
# T3 sequence (P45983 1-384 isoform P45983-2): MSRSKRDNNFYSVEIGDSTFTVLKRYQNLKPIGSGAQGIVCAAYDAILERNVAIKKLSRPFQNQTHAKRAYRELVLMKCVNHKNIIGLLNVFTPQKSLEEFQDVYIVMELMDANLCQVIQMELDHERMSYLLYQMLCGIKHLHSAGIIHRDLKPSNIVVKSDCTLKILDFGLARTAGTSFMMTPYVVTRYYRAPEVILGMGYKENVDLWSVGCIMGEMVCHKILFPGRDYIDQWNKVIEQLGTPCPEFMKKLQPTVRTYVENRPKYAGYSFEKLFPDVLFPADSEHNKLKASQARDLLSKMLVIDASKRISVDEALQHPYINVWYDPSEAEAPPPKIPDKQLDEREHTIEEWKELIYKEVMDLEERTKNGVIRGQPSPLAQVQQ
# BRaf, sequence (P15056 whole entry): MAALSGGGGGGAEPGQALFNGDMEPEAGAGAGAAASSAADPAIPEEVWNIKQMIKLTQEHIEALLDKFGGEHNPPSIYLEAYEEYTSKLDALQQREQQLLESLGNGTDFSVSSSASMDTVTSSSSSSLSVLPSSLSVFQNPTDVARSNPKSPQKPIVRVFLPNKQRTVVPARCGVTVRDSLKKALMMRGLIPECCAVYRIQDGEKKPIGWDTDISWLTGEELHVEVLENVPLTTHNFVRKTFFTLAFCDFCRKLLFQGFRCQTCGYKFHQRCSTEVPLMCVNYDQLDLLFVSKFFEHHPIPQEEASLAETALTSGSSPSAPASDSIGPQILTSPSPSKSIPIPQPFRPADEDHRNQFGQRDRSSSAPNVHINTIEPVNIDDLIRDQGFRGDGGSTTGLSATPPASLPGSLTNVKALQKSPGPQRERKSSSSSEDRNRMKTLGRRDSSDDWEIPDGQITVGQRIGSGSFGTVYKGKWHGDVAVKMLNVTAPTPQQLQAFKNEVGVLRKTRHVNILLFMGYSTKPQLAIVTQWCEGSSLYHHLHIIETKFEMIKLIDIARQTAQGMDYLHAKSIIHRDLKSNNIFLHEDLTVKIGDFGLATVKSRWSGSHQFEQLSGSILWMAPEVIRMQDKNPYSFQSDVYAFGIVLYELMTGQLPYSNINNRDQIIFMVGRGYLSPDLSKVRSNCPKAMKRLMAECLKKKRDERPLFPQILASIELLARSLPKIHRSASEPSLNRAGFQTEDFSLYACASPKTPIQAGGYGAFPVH
Compound,"Selectivity vs. MKK7, ratio PoC(MKK7)/PoC(MKK4) (MKK7)","MKK4, residual percent of control binding (PoC) (MKK4)","Selectivity vs. JNK1, ratio PoC(JNK1)/PoC(MKK4) (JNK1)","Selectivity vs. BRaf, ratio PoC(BRaf)/PoC(MKK4) (BRaf)"
"CCCS(=O)(=O)Nc1ccc(F)c(C(=O)c2n[nH]c3ncc(-c4cccc(N(C)C)c4)cc23)c1F [Example 28, N-(3-(5-(3-(dimethyl-amino)phenyl)-1H-pyrazo-lo[3,4-b]pyridine-3-carbonyl)-2,4-difluoro-phenyl)propane-1-sulfonamide]",+ (10 > PoC(MKK7)/PoC(MKK4) ≥ 3),+ (10 ≤ PoC < 30),+ (10 > PoC(JNK1)/PoC(MKK4) ≥ 3),O (PoC(BRaf)/PoC(MKK4) < 3)
"CCCS(=O)(=O)Nc1ccc(F)c(C(=O)c2n[nH]c3ncc(-c4cccc(F)c4)cc23)c1F [Example 16, N-(2,4-difluoro-3-(5-(3-fluorophenyl)-1H-pyrazo-lo[3,4-b]pyridine-3-carbonyl)-phenyl)propane-1-sulfon-amide]",++ (30 > PoC(MKK7)/PoC(MKK4) ≥ 10),++ (1 ≤ PoC < 10),++ (30 > PoC(JNK1)/PoC(MKK4) ≥ 10),O (PoC(BRaf)/PoC(MKK4) < 3)
"CCCS(=O)(=O)Nc1ccc(F)c(C(=O)c2n[nH]c3ncc(-c4ccc(C(F)(F)F)cc4)cc23)c1F [Example 34, N-(2,4-difluoro-3-(5-(4-(trifluoromethyl)phenyl)-1H-pyrazolo[3,4-b]pyridine-3-carbonyl)-phenyl)propane-1-sulfonamide]",+ (10 > PoC(MKK7)/PoC(MKK4) ≥ 3),+ (10 ≤ PoC < 30),O (PoC(JNK1)/PoC(MKK4) < 3),O (PoC(BRaf)/PoC(MKK4) < 3)
"CCCS(=O)(=O)Nc1ccc(F)c(C(=O)c2n[nH]c3ncc(-c4ccc(C)c(C)c4)cc23)c1F [Example 12, N-(3-(5-(3,4-dimethyl-phenyl)-1H-pyrazolo[3,4-b]pyridine-3-carbonyl)-2,4-difluorophenyl)-propane-1-sulfonamide]",+ (10 > PoC(MKK7)/PoC(MKK4) ≥ 3),+ (10 ≤ PoC < 30),+ (10 > PoC(JNK1)/PoC(MKK4) ≥ 3),O (PoC(BRaf)/PoC(MKK4) < 3)
"CCCS(=O)(=O)Nc1ccc(F)c(Cc2n[nH]c3ncc(-c4ccc(Cl)cc4)cc23)c1F [Example 50, N-(3-((5-(4-chlorophenyl)-1H-pyrazolo[3,4-b]pyridin-3-yl)methyl)-2,4-difluorophenyl)propane-1-sulfonamide]",O (PoC(MKK7)/PoC(MKK4) < 3),O (PoC ≥ 30),O (PoC(JNK1)/PoC(MKK4) < 3),O (PoC(BRaf)/PoC(MKK4) < 3)
"CCCCS(=O)(=O)Nc1cccc(C(=O)c2n[nH]c3ncc(-c4ccc5c(c4)OCCO5)cc23)c1F [Example 43, N-(3-(5-(2,3-dihydro-benzo-[b][1,4]dioxin-6-yl)-1H-pyrazolo[3,4-b]-pyridine-3-carbonyl)-2-fluorophenyl)-butane-1-sulfonamide]",+ (10 > PoC(MKK7)/PoC(MKK4) ≥ 3),+ (10 ≤ PoC < 30),+ (10 > PoC(JNK1)/PoC(MKK4) ≥ 3),+ (10 > PoC(BRaf)/PoC(MKK4) ≥ 3)
"CCCS(=O)(=O)Nc1ccc(F)c(Sc2n[nH]c3ncc(-c4ccc(Cl)cc4)cc23)c1F [Example 46, N-(3-((5-(4-chlorophenyl)-1H-pyrazolo[3,4-b]pyridin-3-yl)thio)-2,4-difluorophenyl)propane-1-sulfonamide]",O (PoC(MKK7)/PoC(MKK4) < 3),O (PoC ≥ 30),O (PoC(JNK1)/PoC(MKK4) < 3),O (PoC(BRaf)/PoC(MKK4) < 3)
"CCCS(=O)(=O)Nc1ccc(F)c(S(=O)(=O)c2n[nH]c3ncc(-c4ccc(Cl)cc4)cc23)c1F [Example 48, N-(3-((5-(4-chlorophenyl)-1H-pyrazolo[3,4-b]pyridin-3-yl)sulfonyl)-2,4-difluorophenyl)propane-1-sulfonamide]",O (PoC(MKK7)/PoC(MKK4) < 3),O (PoC ≥ 30),O (PoC(JNK1)/PoC(MKK4) < 3),O (PoC(BRaf)/PoC(MKK4) < 3)
"CCCS(=O)(=O)Nc1ccc(F)c(C(=O)c2n[nH]c3ncc(-c4ccc(Cl)c(C(F)(F)F)c4)cc23)c1F [Example 36, N-(3-(5-(4-chloro-3-(trifluoromethyl)phenyl)-1H-pyrazolo[3,4-13]-pyridine-3-carbonyl)-2,4-difluorophenyl)-propane-1-sulfonamide]",+ (10 > PoC(MKK7)/PoC(MKK4) ≥ 3),+ (10 ≤ PoC < 30),+ (10 > PoC(JNK1)/PoC(MKK4) ≥ 3),O (PoC(BRaf)/PoC(MKK4) < 3)
"CCCS(=O)(=O)Nc1ccc(F)c(C(=O)c2n[nH]c3ncc(-c4cccc(C(F)(F)F)c4)cc23)c1F [Example 30, N-(2,4-difluoro-3-(5-(3-(trifluoromethyl)phenyl)-1H-pyrazolo[3,4-b]pyridine-3-carbonyl)phenyl)propane-1-sulfonamide]",O (PoC(MKK7)/PoC(MKK4) < 3),O (PoC ≥ 30),O (PoC(JNK1)/PoC(MKK4) < 3),O (PoC(BRaf)/PoC(MKK4) < 3)
"CCCS(=O)(=O)Nc1ccc(F)c(C(=O)c2n[nH]c3ncc(-c4ccc(Cl)cc4Cl)cc23)c1F [Example 35, N-(3-(5-(2,4-dichlorophenyl)-1H-pyrazolo[3,4-b]pyridine-3-carbonyl)-2,4-difluoro-phenyl)propane-1-sulfonamide]",+ (10 > PoC(MKK7)/PoC(MKK4) ≥ 3),+ (10 ≤ PoC < 30),+ (10 > PoC(JNK1)/PoC(MKK4) ≥ 3),+ (10 > PoC(BRaf)/PoC(MKK4) ≥ 3)
"CCCS(=O)(=O)Nc1ccc(F)c(C(=O)c2n[nH]c3ncc(-c4cc(Cl)cc(Cl)c4)cc23)c1F [Example 22, N-(3-(5-(3,5-dichloro-phenyl)-1H-pyrazolo[3,4-b]pyridine-3-carbonyl)-2,4-difluoro-phenyl)propane-1-sulfon-amide]",O (PoC(MKK7)/PoC(MKK4) < 3),O (PoC ≥ 30),O (PoC(JNK1)/PoC(MKK4) < 3),O (PoC(BRaf)/PoC(MKK4) < 3)
"CCCS(=O)(=O)Nc1ccc(F)c(C(=O)c2n[nH]c3ncc(-c4ccc(C)cc4)cc23)c1F [Example 20, N-(2,4-difluoro-3-(5-p-tolyl-1H-pyrazolo[3,4-b]pyridine-3-carbonyl)phenyl)propane-1-sulfonamide]",++ (30 > PoC(MKK7)/PoC(MKK4) ≥ 10),++ (1 ≤ PoC < 10),++ (30 > PoC(JNK1)/PoC(MKK4) ≥ 10),O (PoC(BRaf)/PoC(MKK4) < 3)

# Source: patent US12264158B2, “Protein kinase MKK4 inhibitors for promoting liver regeneration or reducing or preventing hepatocyte death” (HEPAREGENIX GMBH, priority 2018, dated 2025)
